Measured values taken from patent publication US8685976B2, “Cell adhesion promoting agent and method of promoting cell adhesion” (Kyoto University, priority 2008, dated 2014).

Tests used:
[1] = test system: HepG2 cells; experiment: Focal adhesion formation, anti-vinculin staining; format: cell-based; settings: HepG2, immediately after seeding
Protocol: Trypsin-treated HepG2 cells were plated for 3 hours onto coverslips to which adhesamine was added; fixed thereon; and stained with anti-vinculin antibody and Alexa Fluor 488 goat anti-mouse IgG.
The cells were also stained with an antibody against vinculin, a marker of focal adhesion. […] These observations indicate that the adhesamine-induced contacts of the cells to the plates initiate a normal schedule of cell adhesion^(2,3).

[2] = test system: CHO F17 cells; experiment: Cell adhesion assay, CHO F17; format: cell-based; settings: CHO F17, 6 μM
Protocol: (§1) (A) and (B) show CHO-K1 (wild-type) cells incubated with 1% (v/v) DMSO (A) or 6 μM adhesamine (B). (C) and (D) show CHO 677 incubated with 1% (v/v) DMSO (A) or 6 μM adhesamine (B). […] Cells were seeded onto adhesamine-added or fibronectin-coated plastic wells. The concentrations of adhesamine and fibronectin were 6 μM and 5 μg/mL, respectively. Adhered cells were counted at 5 hours after seeding. Each point represents average±SD.
(§2) For CHO wild-type and CHO mutant cell lines, 100 μL of trypsinized cell suspension in a culture medium was added to each well at a density of 2×10^5 cells/mL. After 5-hour incubation at 37° C., non-adhered cells were removed by washing each well with PBS twice, and the attached cells were counted with a Neubauer counting chamber (Digital Bio). To calculate adhesion rates, the cell numbers before washing were assigned a value of 100%. Each assay was conducted in triplicate, and the means and standard derivations were calculated for a minimum of three independent experiments.

[3] = test system: HepG2 cells; experiment: Cell growth assay (WST-8), HepG2; format: cell-based
Protocol: (§3) In (A) and (B), the cell growth was determined at 24, 48, and 72 hours after the addition of adhesamine (1) (6 μM). The cell growth in the presence of 1% (v/v) DMSO was assigned a value of 100%. The data shown are means±SD for a minimum of three experiments. (C) to (F) show the rearrangement of actin filaments in HepG2 and Jurkat cells in the presence of adhesamine (6 μM). Brightfield images (C and D) and confocal images (E and F) are shown. HepG2 (C and E) or Jurkat (D and F) cells were plated for 5 hours or 3 hours, respectively, and actin cytoskeletal was visualized using rhodamine-labeled phalloidin.
1 μL DMSO solution of adhesamine (1) was added to 96-well plate at a concentration of 600 μM. […] After incubation for indicated time, the cell viability was measured using Cell Counting Kit-8 (Dojindo Molecular Technologies, Inc., Gaithersburg, Md.), which contains a tetrazolium salt (WST-8) that produces a water-soluble formazan dye by NADH dehydrogenases in living cells. […] The optical density (OD) of the solution was read by a microplate reader, using a test wavelength at 450 nm and a reference wavelength at 650 nm. […] Each assay was conducted in triplicate, and the means and standard derivations were calculated for a minimum of three independent experiments.

[4] = test system: HepG2 cells; experiment: Cell adhesion assay by addition, HepG2 cells; format: cell-based; settings: 0.6-60 μM in medium, 3-hour incubation, reattachment after trypsin treatment
Protocol: HepG2 cells were cultured in MEM supplemented with 10% fetal bovine serum (FBS) and 1% penicillin/streptomycin at 37° C. under 5% CO2. Jurkat cells were cultured in RPMI-1640 supplemented with 10% fetal bovine serum (FBS) and 1% penicillin/streptomycin at 37° C. under 5% CO2. For the screening of small molecule compounds, 100 μL of HepG2 suspension (2×10^5 cells/mL) was plated into 96-well plates supplied with each compound at a concentration of 20 μg/mL. After 3, 16, and 24 hours, the cells were subjected to microscopic observation to examine phenotypic changes. CHO K1 cells and CHO mutant cell lines were maintained in Ham's F-12 medium supplemented with 7.5% fetal bovine serum.
1 μL each of an aqueous solution of adhesamine (1), Type I collagen, poly-L-lysine hydrochloride, poly-L-ornithine hydrobromide, and fibronectin at a concentration of 50, 500, and 5000 μg/ml, was added to 96-well plate. […] After 3-hour incubation at 37° C., non-adherent cells were removed by washing each well with PBS three times, and the attached cells were counted with a Neubauer counting chamber (Digital Bio). […] […] Each assay was conducted in triplicate, and the means and standard derivations were calculated. […]

[5] = test system: Jurkat cells; experiment: Cell adhesion assay by coating; format: cell-based, human; settings: 50 μg/well
Protocol: The surface area per well is 0.3 cm^2.
The assay samples (adhesamine (1), Type I collagen, poly-L-lysine hydrochloride, poly-L-ornithine hydrobromide, and fibronectin) were adjusted in concentration by being diluted with 10 mM PBS containing 1% DMSO. […] Thereafter, the wells were washed with Milli-Q water twice. 100 μL of Jurkat cell suspension (1×10^6 cells/mL) was added to each of coated wells. After 5-hour incubation at 37° C., non-adhered cells were removed by washing each well with PBS twice, and attached cells were counted with a Neubauer counting chamber (Digital Bio).

[6] = test system: CHO 606 cells; experiment: Cell adhesion assay, CHO 606; format: cell-based; settings: CHO 606, 6 μM
Protocol: as §1, §2

[7] = test system: HepG2 cells; experiment: Visualization of actin cytoskeleton with rhodamine-conjugated phalloidin, HepG2; format: cell-based; settings: HepG2, 6 μM
Protocol: as §3
Jurkat or HepG2 cells were plated onto glass coverslips in the presence of adhesamine (6 μM). They were fixed after 5 or 3 hours, respectively, with 4% paraformaldehyde for 20 minutes. The cell membrane was permeabilized by 5-min treatment with 0.1% Triton X-100 (in PBS). Samples were washed twice with PBS, and actin cytoskeleton was visualized with rhodamine-conjugated phalloidin according to the manufacturer's instructions (Invitrogen). The cell images were captured with a Yokogawa CSU22 confocal fluorescence microscope with 588-nm laser excitation.

What does the source list for `CSc1nc(Cl)c(C=O)c(N2CC[N+]3(CC2)CC[N+]2(CCN(c4nc(SC)nc(Cl)c4C=O)CC2)CC3)n1` [adhesamine]?
vinculin-containing focal adhesions [1]: Vinculin-containing focal adhesions were observed; response of cell adhesion to adhesamine [2]: responded; cytotoxicity ([3]; HepG2, 6 μM): no obvious cytotoxicity; growth of the cells ([3]; HepG2, 6 μM, 24, 48, 72 hours, vs 1% DMSO): slightly enhanced; enhancement of the adhesion of HepG2 cells [4]: up to twofold; cell attachment when applied as coating, compared with coating reagents [5]: greater effect than fibronectin, poly-L-lysine, and poly-L-ornithine; response of cell adhesion to adhesamine [6]: less responsive; actin cytoskeleton structure in adhered cells [7]: Actin filament bundles ran in parallel to the cell axis or through cell processes
